Publication PMC8213057, “Targeting ALK2: An Open Science Approach to Developing Therapeutics for the Treatment of Diffuse Intrinsic Pontine Glioma” (Journal of Medicinal Chemistry, 2020)
“And” between values parts separate entries of the source, which are not always exact repeats. Equal values may be shown once.

Key:
STK32C/YANK3 = STK32C/YANK3 (Homo sapiens, UniProt Q86UX6); conditions: 1 μM; Run 1, Run 2
MRCKa/CDC42BPA = MRCKa/CDC42BPA (Homo sapiens, UniProt Q5VT25); conditions: 1 μM; Run 1, Run 2
CSK = CSK (Homo sapiens, UniProt P41240); conditions: 1 μM; Run 1, Run 2
VRK1 = target: T1, VRK1 (Homo sapiens, UniProt Q99986); conditions: 1 μM; Run 1, Run 2
T1 sequence (Q99986 1-396): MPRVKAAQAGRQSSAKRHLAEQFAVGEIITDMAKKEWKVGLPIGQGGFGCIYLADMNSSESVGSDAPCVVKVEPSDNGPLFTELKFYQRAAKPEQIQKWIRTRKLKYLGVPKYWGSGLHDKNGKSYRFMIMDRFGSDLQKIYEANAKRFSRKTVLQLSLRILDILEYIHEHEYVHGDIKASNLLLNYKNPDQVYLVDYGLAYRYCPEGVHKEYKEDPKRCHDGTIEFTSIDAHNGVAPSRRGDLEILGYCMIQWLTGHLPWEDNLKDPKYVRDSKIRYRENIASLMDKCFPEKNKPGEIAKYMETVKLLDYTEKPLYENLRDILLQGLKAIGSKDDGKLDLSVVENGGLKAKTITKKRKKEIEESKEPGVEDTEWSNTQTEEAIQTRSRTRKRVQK

CK1g2 = CK1g2 (Homo sapiens, UniProt P78368); conditions: 1 μM; Run 1, Run 2
PKN3/PRK3 = PKN3/PRK3 (Homo sapiens, UniProt Q6P5Z2); conditions: 1 μM; Run 1, Run 2
DYRK1B = DYRK1B (Homo sapiens, UniProt Q9Y463); assay: biochemical; conditions: read-out: % enzyme activity, 1 μM; Run 1, Run 2
PKCa = PKCa (Homo sapiens, UniProt P17252); conditions: 1 μM; Run 1, Run 2
PLK4/SAK = target: T2, PLK4/SAK (Homo sapiens, UniProt O00444); assay: biochemical; conditions: read-out: % enzyme activity, 1 μM; Run 1, Run 2
T2 sequence (O00444 1-970): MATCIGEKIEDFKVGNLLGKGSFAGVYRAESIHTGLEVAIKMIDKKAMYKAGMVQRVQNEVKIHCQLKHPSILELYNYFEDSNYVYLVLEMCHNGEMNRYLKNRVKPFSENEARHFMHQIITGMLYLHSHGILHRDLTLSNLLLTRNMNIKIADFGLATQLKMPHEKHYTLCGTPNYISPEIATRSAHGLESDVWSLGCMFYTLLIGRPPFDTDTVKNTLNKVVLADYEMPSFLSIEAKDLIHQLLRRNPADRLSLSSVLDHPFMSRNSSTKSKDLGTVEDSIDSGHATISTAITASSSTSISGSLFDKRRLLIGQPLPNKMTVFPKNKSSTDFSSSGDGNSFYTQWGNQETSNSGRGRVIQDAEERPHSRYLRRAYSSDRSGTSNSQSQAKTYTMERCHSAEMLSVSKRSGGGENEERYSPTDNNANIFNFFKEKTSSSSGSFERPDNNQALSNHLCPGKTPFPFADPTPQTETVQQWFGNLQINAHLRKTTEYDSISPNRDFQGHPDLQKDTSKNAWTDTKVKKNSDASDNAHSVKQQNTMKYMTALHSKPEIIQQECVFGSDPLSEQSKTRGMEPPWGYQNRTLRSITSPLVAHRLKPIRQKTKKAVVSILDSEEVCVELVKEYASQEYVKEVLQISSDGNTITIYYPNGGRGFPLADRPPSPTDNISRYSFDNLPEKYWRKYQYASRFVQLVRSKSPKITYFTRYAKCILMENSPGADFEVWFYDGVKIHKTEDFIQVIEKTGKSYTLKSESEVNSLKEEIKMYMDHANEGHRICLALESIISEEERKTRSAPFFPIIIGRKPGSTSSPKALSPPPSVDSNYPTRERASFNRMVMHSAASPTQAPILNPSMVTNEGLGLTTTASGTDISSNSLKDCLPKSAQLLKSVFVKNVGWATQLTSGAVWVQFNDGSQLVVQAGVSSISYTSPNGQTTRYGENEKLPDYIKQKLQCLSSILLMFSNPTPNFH

SIK2 = target: T3, SIK2 (Homo sapiens, UniProt Q9H0K1); assay: 375-member kinase panel; format: biochemical; conditions: Run 1, Run 2; for % enzyme activity: 1 μM; for remaining activity at 1 µM: read-out: % enzyme activity, 1 μM
T3 construct: purchased Reaction Biology Corporation

MST3/STK24 = MST3/STK24 (Homo sapiens, UniProt Q9Y6E0); assay: biochemical; conditions: read-out: % enzyme activity, 1 μM; Run 1, Run 2
AKT1 = AKT1 (Homo sapiens, UniProt P31749); conditions: 1 μM; Run 1, Run 2
P38d/MAPK13 = target: T4, P38d/MAPK13 (Homo sapiens, UniProt O15264); assay: biochemical; conditions: read-out: % enzyme activity, 1 μM; Run 1, Run 2
T4 sequence (O15264 1-365): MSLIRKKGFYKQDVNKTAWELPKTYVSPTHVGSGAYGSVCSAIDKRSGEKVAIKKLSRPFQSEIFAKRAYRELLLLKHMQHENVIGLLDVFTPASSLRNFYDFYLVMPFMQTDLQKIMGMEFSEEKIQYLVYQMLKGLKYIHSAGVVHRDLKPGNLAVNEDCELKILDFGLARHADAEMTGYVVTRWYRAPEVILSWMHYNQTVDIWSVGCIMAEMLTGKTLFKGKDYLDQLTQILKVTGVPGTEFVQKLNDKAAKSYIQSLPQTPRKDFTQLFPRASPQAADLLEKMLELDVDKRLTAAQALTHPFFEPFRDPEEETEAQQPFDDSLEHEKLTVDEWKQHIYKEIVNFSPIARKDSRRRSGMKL

MEK5 = target: T5, MEK5 (Homo sapiens, UniProt Q13163); assay: biochemical; conditions: read-out: % enzyme activity, 1 μM; Run 1, Run 2
T5 sequence (Q13163 1-448): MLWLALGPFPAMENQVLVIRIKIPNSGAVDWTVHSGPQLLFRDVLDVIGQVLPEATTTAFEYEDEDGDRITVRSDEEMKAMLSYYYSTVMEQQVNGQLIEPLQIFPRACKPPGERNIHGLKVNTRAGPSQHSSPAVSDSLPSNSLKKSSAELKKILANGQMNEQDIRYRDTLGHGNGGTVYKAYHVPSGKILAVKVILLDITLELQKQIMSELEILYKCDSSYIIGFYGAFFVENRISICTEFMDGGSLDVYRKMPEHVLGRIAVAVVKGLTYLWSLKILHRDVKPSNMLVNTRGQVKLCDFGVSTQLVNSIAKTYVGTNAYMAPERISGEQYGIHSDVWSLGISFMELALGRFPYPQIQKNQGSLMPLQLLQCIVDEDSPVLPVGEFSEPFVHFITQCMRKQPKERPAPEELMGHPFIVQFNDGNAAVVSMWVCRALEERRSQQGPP

T3 sequence (Q9H0K1 whole entry): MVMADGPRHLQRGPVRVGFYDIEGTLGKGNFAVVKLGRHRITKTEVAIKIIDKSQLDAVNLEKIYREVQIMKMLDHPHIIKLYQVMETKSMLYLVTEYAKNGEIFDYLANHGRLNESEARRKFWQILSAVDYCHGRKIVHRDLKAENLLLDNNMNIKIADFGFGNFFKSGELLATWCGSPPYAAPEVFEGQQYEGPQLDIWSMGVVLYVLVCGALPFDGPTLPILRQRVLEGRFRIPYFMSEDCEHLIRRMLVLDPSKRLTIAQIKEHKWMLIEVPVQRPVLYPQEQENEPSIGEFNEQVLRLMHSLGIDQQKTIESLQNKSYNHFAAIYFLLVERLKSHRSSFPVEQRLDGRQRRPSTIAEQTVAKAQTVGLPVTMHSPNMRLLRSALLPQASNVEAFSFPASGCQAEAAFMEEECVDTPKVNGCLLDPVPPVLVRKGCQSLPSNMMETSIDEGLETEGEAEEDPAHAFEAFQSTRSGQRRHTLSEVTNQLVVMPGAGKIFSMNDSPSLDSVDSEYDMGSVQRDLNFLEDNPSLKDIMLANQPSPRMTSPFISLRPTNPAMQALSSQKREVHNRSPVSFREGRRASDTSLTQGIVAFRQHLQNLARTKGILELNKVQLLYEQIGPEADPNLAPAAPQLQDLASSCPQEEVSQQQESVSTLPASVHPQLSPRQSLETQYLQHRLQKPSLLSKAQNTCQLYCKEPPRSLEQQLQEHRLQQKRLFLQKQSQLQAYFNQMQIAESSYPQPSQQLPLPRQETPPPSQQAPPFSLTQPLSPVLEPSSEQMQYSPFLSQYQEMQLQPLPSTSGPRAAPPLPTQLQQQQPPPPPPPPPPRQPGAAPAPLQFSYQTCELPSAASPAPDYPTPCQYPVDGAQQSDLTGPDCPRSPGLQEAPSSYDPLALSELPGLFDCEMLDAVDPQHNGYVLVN
Sequence of CK1g2 (P78368 whole entry): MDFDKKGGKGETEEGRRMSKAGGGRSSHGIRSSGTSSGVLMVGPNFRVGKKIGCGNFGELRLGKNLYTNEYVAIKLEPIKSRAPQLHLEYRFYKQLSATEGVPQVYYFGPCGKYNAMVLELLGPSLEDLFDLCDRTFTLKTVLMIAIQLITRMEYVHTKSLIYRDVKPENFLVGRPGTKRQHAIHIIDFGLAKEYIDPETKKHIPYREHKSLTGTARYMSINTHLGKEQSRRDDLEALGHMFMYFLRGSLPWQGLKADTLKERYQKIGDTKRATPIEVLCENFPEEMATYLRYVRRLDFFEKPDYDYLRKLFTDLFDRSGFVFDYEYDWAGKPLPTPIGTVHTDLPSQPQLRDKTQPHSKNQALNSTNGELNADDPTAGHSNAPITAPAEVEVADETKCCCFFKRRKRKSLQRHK
Sequence of CSK (P41240 whole entry): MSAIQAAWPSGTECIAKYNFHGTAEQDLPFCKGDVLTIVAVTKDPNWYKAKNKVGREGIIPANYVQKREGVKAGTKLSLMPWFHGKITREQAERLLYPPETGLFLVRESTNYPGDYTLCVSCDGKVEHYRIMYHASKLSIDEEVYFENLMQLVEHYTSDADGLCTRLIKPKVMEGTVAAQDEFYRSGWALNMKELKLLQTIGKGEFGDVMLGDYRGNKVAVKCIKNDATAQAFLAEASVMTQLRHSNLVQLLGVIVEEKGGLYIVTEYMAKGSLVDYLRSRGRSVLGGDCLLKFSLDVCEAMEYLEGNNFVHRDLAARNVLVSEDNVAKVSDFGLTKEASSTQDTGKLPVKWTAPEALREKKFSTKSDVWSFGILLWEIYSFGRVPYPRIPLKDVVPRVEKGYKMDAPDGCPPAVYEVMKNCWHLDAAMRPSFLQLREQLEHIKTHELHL
Sequence of STK32C/YANK3 (Q86UX6 whole entry): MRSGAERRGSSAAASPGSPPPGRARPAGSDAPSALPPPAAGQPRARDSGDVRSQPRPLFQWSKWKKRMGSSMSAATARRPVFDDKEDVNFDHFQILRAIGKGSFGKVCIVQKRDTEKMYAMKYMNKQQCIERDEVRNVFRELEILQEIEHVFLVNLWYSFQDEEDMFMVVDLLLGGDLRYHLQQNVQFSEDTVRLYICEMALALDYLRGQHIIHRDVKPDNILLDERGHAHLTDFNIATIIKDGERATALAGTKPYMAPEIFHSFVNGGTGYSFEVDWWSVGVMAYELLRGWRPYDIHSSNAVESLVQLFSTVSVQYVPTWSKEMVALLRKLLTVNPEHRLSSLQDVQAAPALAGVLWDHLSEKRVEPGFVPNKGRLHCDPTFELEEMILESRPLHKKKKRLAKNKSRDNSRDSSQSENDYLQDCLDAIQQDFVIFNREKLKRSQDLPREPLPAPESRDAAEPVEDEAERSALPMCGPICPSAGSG
Sequence of MRCKa/CDC42BPA (Q5VT25 whole entry): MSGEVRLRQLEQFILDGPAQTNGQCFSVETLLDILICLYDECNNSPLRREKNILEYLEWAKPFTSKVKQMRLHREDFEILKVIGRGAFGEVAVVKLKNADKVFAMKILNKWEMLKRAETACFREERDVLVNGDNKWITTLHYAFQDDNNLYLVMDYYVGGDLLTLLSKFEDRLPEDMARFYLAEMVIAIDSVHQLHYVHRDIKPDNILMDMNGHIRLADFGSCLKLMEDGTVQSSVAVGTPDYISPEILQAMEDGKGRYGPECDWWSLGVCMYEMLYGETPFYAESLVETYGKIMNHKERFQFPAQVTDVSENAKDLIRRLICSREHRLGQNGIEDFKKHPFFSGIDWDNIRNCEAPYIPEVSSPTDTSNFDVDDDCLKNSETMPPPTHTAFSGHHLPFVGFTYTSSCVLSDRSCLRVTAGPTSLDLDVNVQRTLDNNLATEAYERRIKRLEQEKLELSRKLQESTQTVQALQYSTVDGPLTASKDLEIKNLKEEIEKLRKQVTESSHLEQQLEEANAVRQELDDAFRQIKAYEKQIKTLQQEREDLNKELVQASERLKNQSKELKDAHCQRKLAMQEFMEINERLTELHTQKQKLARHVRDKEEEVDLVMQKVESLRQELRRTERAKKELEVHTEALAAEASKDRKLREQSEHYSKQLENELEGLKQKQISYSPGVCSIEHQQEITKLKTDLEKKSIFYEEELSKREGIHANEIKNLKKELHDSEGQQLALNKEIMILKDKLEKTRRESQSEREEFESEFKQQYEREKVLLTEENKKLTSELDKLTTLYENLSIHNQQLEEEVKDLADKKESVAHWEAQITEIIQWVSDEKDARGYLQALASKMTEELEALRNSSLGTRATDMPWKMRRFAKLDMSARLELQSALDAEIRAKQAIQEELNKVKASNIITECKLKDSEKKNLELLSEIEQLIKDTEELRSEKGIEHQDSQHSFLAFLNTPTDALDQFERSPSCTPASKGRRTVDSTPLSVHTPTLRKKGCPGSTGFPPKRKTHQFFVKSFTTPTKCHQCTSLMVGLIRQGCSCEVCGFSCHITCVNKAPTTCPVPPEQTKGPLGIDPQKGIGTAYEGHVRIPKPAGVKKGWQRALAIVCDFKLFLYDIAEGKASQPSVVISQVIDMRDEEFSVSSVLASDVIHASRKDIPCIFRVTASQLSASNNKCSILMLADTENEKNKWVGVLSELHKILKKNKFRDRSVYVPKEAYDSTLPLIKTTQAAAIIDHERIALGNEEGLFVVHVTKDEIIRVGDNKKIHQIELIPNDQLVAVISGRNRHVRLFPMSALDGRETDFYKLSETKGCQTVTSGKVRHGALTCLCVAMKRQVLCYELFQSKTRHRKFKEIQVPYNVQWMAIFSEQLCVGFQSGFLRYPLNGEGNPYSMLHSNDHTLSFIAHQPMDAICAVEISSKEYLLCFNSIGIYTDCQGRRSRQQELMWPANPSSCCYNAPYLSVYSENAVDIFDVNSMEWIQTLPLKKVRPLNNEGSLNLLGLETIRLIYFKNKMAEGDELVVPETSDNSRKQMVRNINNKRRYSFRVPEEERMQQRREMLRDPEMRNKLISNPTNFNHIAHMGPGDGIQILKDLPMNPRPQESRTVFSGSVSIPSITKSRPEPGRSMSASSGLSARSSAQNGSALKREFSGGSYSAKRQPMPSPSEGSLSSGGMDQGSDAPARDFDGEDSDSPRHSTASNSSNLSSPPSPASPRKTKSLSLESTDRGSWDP

SMILES	% enzyme activity (STK32C/YANK3) [%]	% enzyme activity (MRCKa/CDC42BPA) [%]	% enzyme activity (CSK) [%]	% enzyme activity (VRK1) [%]	% enzyme activity (CK1g2) [%]	% enzyme activity (PKN3/PRK3) [%]	remaining activity at 1 µM (DYRK1B) [%]	% enzyme activity (PKCa) [%]	remaining activity at 1 µM (PLK4/SAK) [%]	% enzyme activity at 1 μM (DDR1)	% enzyme activity (SIK2) [%]	remaining activity at 1 µM (SIK2) [%]	remaining activity at 1 µM (MST3/STK24) [%]	% enzyme activity (AKT1) [%]	remaining activity at 1 µM (P38d/MAPK13) [%]	remaining activity at 1 µM (MEK5) [%]
COc1cc(-c2cncc(-c3ccc(N4C[C@@H](C)N(C)[C@@H](C)C4)cc3)c2C)cc(F)c1C(N)=O [Compound 26c, 2-Fluoro-6-methoxy-4-(4-methyl-5-(4-((3R,5S)-3,4,5-trimethylpiperazin-1-yl)phenyl)pyridin-3-yl)benzamide]	91.96	104.72	102.04	98.74	85.61	96.44	59.2	89.76	98.8	57.2% and 55.5%	43.50	43.9	96.3	104.50	97.7	93.2
COc1cc(-c2cncc(-c3ccc(N4CCN(C)CC4)cc3)c2C)cc(F)c1C(N)=O [Compound 26a, 2-Fluoro-6-methoxy-4-(4-methyl-5-(4-(4-methylpiperazin-1-yl)phenyl)pyridin-3-yl)benzamide]	85.01	102.07	99.36	100.69	75.72	93.55	40.6	89.62	94.1	32.1% and 31.2%	30.68	32	90.2	102.39	101	86.9
